Data: patent US20240082228A1, “SARS-COV-2 THERAPEUTICS” (priority 2021, published 2024)
“And” between values parts separate entries of the source, which are not always exact repeats. Identical values can stand only once.

Tested on: not given
Experiment: not given
Settings: 1 uM; call rule not given here

Structure (SMILES) | Toxic (1 uM)
N=C(N)c1ccc2nc(-c3cc(CC(=O)N[C@@H](CC(=O)O)C(=O)O)cc(-c4cc(S(N)(=O)=O)ccc4O)c3O)[nH]c2c1 [PCl 27483, pci-27483] | 0 (non-toxic (Normalized Cell number>0.65)
CC(C)OC(=O)[C@H](C)N[P@](=O)(OC[C@H]1O[C@@H](n2ccc(=O)[nH]c2=O)[C@](C)(F)[C@@H]1O)Oc1ccccc1 [PSI-7977, Sofosbuvir] | 0 (non-toxic (Normalized Cell number>0.65)
CCC[C@H](N[C@@H](C)C(=O)N1[C@H](C(=O)O)C[C@@H]2CCCC[C@@H]21)C(=O)OCC [Perindopril, perindopril] | 0 (non-toxic (Normalized Cell number>0.65)

Same assay, conditions: 5 uM

Structure (SMILES) | Toxic (5 uM)
N=C(N)c1ccc2nc(-c3cc(CC(=O)N[C@@H](CC(=O)O)C(=O)O)cc(-c4cc(S(N)(=O)=O)ccc4O)c3O)[nH]c2c1 [PCl 27483, pci-27483] | 0 (non-toxic (Normalized Cell number>0.65)
CC(C)OC(=O)[C@H](C)N[P@](=O)(OC[C@H]1O[C@@H](n2ccc(=O)[nH]c2=O)[C@](C)(F)[C@@H]1O)Oc1ccccc1 [PSI-7977, Sofosbuvir] | 0 (non-toxic (Normalized Cell number>0.65)
CCC[C@H](N[C@@H](C)C(=O)N1[C@H](C(=O)O)C[C@@H]2CCCC[C@@H]21)C(=O)OCC [Perindopril, perindopril] | 0 (non-toxic (Normalized Cell number>0.65)

Same assay, conditions: compound at 1 uM, average of normalized cell number, n=3, relative to DMSO

Structure (SMILES) | Average Cell Number (1 uM)
N=C(N)c1ccc2nc(-c3cc(CC(=O)N[C@@H](CC(=O)O)C(=O)O)cc(-c4cc(S(N)(=O)=O)ccc4O)c3O)[nH]c2c1 [PCl 27483, pci-27483] | 0.775
CC(C)OC(=O)[C@H](C)N[P@](=O)(OC[C@H]1O[C@@H](n2ccc(=O)[nH]c2=O)[C@](C)(F)[C@@H]1O)Oc1ccccc1 [PSI-7977, Sofosbuvir] | 1.039
CCC[C@H](N[C@@H](C)C(=O)N1[C@H](C(=O)O)C[C@@H]2CCCC[C@@H]21)C(=O)OCC [Perindopril, perindopril] | 0.7365

Same assay, conditions: compound at 1 uM, single replicate, raw cell count

Structure (SMILES) | Cell Number (1 uM)
N=C(N)c1ccc2nc(-c3cc(CC(=O)N[C@@H](CC(=O)O)C(=O)O)cc(-c4cc(S(N)(=O)=O)ccc4O)c3O)[nH]c2c1 [PCl 27483, pci-27483] | 4643 and 4781 and 4200
CC(C)OC(=O)[C@H](C)N[P@](=O)(OC[C@H]1O[C@@H](n2ccc(=O)[nH]c2=O)[C@](C)(F)[C@@H]1O)Oc1ccccc1 [PSI-7977, Sofosbuvir] | 6209 and 5916 and 6135
CCC[C@H](N[C@@H](C)C(=O)N1[C@H](C(=O)O)C[C@@H]2CCCC[C@@H]21)C(=O)OCC [Perindopril, perindopril] | 4330 and 4259 and 4358

Same assay, conditions: compound at 1 uM, single replicate, relative to negative control DMSO

Structure (SMILES) | Normalized Cell Number (1 uM)
N=C(N)c1ccc2nc(-c3cc(CC(=O)N[C@@H](CC(=O)O)C(=O)O)cc(-c4cc(S(N)(=O)=O)ccc4O)c3O)[nH]c2c1 [PCl 27483, pci-27483] | 0.7923 and 0.8159 and 0.7167
CC(C)OC(=O)[C@H](C)N[P@](=O)(OC[C@H]1O[C@@H](n2ccc(=O)[nH]c2=O)[C@](C)(F)[C@@H]1O)Oc1ccccc1 [PSI-7977, Sofosbuvir] | 1.06 and 1.01 and 1.047
CCC[C@H](N[C@@H](C)C(=O)N1[C@H](C(=O)O)C[C@@H]2CCCC[C@@H]21)C(=O)OCC [Perindopril, perindopril] | 0.7389 and 0.7268 and 0.7437

Same assay, conditions: compound at 5 uM, average of normalized cell number, n=3, relative to DMSO

Structure (SMILES) | Average Cell Number (5 uM)
N=C(N)c1ccc2nc(-c3cc(CC(=O)N[C@@H](CC(=O)O)C(=O)O)cc(-c4cc(S(N)(=O)=O)ccc4O)c3O)[nH]c2c1 [PCl 27483, pci-27483] | 0.9439
CC(C)OC(=O)[C@H](C)N[P@](=O)(OC[C@H]1O[C@@H](n2ccc(=O)[nH]c2=O)[C@](C)(F)[C@@H]1O)Oc1ccccc1 [PSI-7977, Sofosbuvir] | 0.991
CCC[C@H](N[C@@H](C)C(=O)N1[C@H](C(=O)O)C[C@@H]2CCCC[C@@H]21)C(=O)OCC [Perindopril, perindopril] | 0.9903

Same assay, conditions: compound at 5 uM, single replicate, raw cell count

Structure (SMILES) | Cell Number (5 uM)
N=C(N)c1ccc2nc(-c3cc(CC(=O)N[C@@H](CC(=O)O)C(=O)O)cc(-c4cc(S(N)(=O)=O)ccc4O)c3O)[nH]c2c1 [PCl 27483, pci-27483] | 5909 and 5702 and 5170
CC(C)OC(=O)[C@H](C)N[P@](=O)(OC[C@H]1O[C@@H](n2ccc(=O)[nH]c2=O)[C@](C)(F)[C@@H]1O)Oc1ccccc1 [PSI-7977, Sofosbuvir] | 5941 and 5681 and 5997
CCC[C@H](N[C@@H](C)C(=O)N1[C@H](C(=O)O)C[C@@H]2CCCC[C@@H]21)C(=O)OCC [Perindopril, perindopril] | 5734 and 6091 and 5782

Same assay, conditions: compound at 5 uM, single replicate, relative to negative control DMSO

Structure (SMILES) | Normalized Cell Number (5 uM)
N=C(N)c1ccc2nc(-c3cc(CC(=O)N[C@@H](CC(=O)O)C(=O)O)cc(-c4cc(S(N)(=O)=O)ccc4O)c3O)[nH]c2c1 [PCl 27483, pci-27483] | 0.9971 and 0.9622 and 0.8724
CC(C)OC(=O)[C@H](C)N[P@](=O)(OC[C@H]1O[C@@H](n2ccc(=O)[nH]c2=O)[C@](C)(F)[C@@H]1O)Oc1ccccc1 [PSI-7977, Sofosbuvir] | 1.002 and 0.9586 and 1.012
CCC[C@H](N[C@@H](C)C(=O)N1[C@H](C(=O)O)C[C@@H]2CCCC[C@@H]21)C(=O)OCC [Perindopril, perindopril] | 0.9676 and 1.028 and 0.9757

Tested on: SARS-CoV-2
Experiment: microbe, parasite or virus in culture
Type: cell-based
Settings: not given

Structure (SMILES) | Average Infection (1 uM) | Average Infection (5 uM)
CC(C)OC(=O)[C@H](C)N[P@](=O)(OC[C@H]1O[C@@H](n2ccc(=O)[nH]c2=O)[C@](C)(F)[C@@H]1O)Oc1ccccc1 [PSI-7977, Sofosbuvir] | −0.27 | −0.4905

Same assay, conditions: 1 uM

Structure (SMILES) | HIT (2 Std, 1 uM)
N=C(N)c1ccc2nc(-c3cc(CC(=O)N[C@@H](CC(=O)O)C(=O)O)cc(-c4cc(S(N)(=O)=O)ccc4O)c3O)[nH]c2c1 [PCl 27483, pci-27483] | HIT
CCC[C@H](N[C@@H](C)C(=O)N1[C@H](C(=O)O)C[C@@H]2CCCC[C@@H]21)C(=O)OCC [Perindopril, perindopril] | HIT

Same assay, conditions: 1 uM, average log2FC infection (n=3) relative to DMSO

Structure (SMILES) | Average Infection (1 uM)
N=C(N)c1ccc2nc(-c3cc(CC(=O)N[C@@H](CC(=O)O)C(=O)O)cc(-c4cc(S(N)(=O)=O)ccc4O)c3O)[nH]c2c1 [PCl 27483, pci-27483] | −0.6789
CCC[C@H](N[C@@H](C)C(=O)N1[C@H](C(=O)O)C[C@@H]2CCCC[C@@H]21)C(=O)OCC [Perindopril, perindopril] | −0.8775

Same assay, conditions: 5 uM

Structure (SMILES) | HIT (2 Stdv, 5 uM)
CC(C)OC(=O)[C@H](C)N[P@](=O)(OC[C@H]1O[C@@H](n2ccc(=O)[nH]c2=O)[C@](C)(F)[C@@H]1O)Oc1ccccc1 [PSI-7977, Sofosbuvir] | HIT

Same assay, conditions: 5 uM, average log2FC infection (n=3) relative to DMSO

Structure (SMILES) | Average Infection (5 uM)
N=C(N)c1ccc2nc(-c3cc(CC(=O)N[C@@H](CC(=O)O)C(=O)O)cc(-c4cc(S(N)(=O)=O)ccc4O)c3O)[nH]c2c1 [PCl 27483, pci-27483] | 0.006187
CCC[C@H](N[C@@H](C)C(=O)N1[C@H](C(=O)O)C[C@@H]2CCCC[C@@H]21)C(=O)OCC [Perindopril, perindopril] | −0.1846

Same assay, conditions: Severe acute respiratory syndrome coronavirus 2, 1 uM, single replicate, relative to negative control DMSO; read-out: Normalized Infection (1 uM)

Structure (SMILES) | activity at 1 µM [%]
N=C(N)c1ccc2nc(-c3cc(CC(=O)N[C@@H](CC(=O)O)C(=O)O)cc(-c4cc(S(N)(=O)=O)ccc4O)c3O)[nH]c2c1 [PCl 27483, pci-27483] | 58
CC(C)OC(=O)[C@H](C)N[P@](=O)(OC[C@H]1O[C@@H](n2ccc(=O)[nH]c2=O)[C@](C)(F)[C@@H]1O)Oc1ccccc1 [PSI-7977, Sofosbuvir] | 80.9
CCC[C@H](N[C@@H](C)C(=O)N1[C@H](C(=O)O)C[C@@H]2CCCC[C@@H]21)C(=O)OCC [Perindopril, perindopril] | 62.3

Same assay, conditions: Severe acute respiratory syndrome coronavirus 2, 5 uM, single replicate, relative to negative control DMSO; read-out: Normalized Infection (5 uM)

Structure (SMILES) | activity at 5 µM [%]
N=C(N)c1ccc2nc(-c3cc(CC(=O)N[C@@H](CC(=O)O)C(=O)O)cc(-c4cc(S(N)(=O)=O)ccc4O)c3O)[nH]c2c1 [PCl 27483, pci-27483] | 104
CC(C)OC(=O)[C@H](C)N[P@](=O)(OC[C@H]1O[C@@H](n2ccc(=O)[nH]c2=O)[C@](C)(F)[C@@H]1O)Oc1ccccc1 [PSI-7977, Sofosbuvir] | 70.5
CCC[C@H](N[C@@H](C)C(=O)N1[C@H](C(=O)O)C[C@@H]2CCCC[C@@H]21)C(=O)OCC [Perindopril, perindopril] | 96.4

Same assay, conditions: overall, 1 or 5 uM

Structure (SMILES) | HIT
N=C(N)c1ccc2nc(-c3cc(CC(=O)N[C@@H](CC(=O)O)C(=O)O)cc(-c4cc(S(N)(=O)=O)ccc4O)c3O)[nH]c2c1 [PCl 27483, pci-27483] | Yes
CC(C)OC(=O)[C@H](C)N[P@](=O)(OC[C@H]1O[C@@H](n2ccc(=O)[nH]c2=O)[C@](C)(F)[C@@H]1O)Oc1ccccc1 [PSI-7977, Sofosbuvir] | Yes
CCC[C@H](N[C@@H](C)C(=O)N1[C@H](C(=O)O)C[C@@H]2CCCC[C@@H]21)C(=O)OCC [Perindopril, perindopril] | Yes
